# Entries after “also recorded” stand apart in the source; their conditions may differ.
# Assay: Rheological characterization of hydrogel compositions (shear and extensional rheology)
# Assay type: physicochemical
# Settings: for change of crossover frequency compared to the Sangelose only hydrogel: 3 wt % Sangelose with 0.75 wt % second agent (αCD 0.05 wt %), 25° C.; for G′ values compared to hydrogels comprising only Sangelose (Tween comparison): at a frequency of 10 rad·s^−1, 3 wt % Sangelose, 0.75 wt % Tween; for storage modulus (G′) compared to Sangelose only hydrogels / tan (delta) compared to Sangelose only hydrogels: measured at 0.1 rad·s^−1, 3 wt % Sangelose with second agent
# Method: Rheological characterization was performed using a 20-mm diameter serrated parallel plate at a 500-μm gap on a TA Instruments DHR-2 stress-controlled rheometer. All measurements were performed at 25° C. Frequency sweep measurements were performed at a constant 1% strain. Steady shear flow sweeps were performed from high to low shear rates. Stress sweeps were performed from low to high with steady-state sensing and yield stress values defined as the stress at which the viscosity decreases 10% from the maximum. Amplitude sweep measurements were performed at a frequency of 0.1 rad·s^-1. P values are calculated with a one-way ANOVA followed by post hoc Tukey multiple comparison test unless otherwise noted. Extensional rheology was performed on a TA Instruments ARES-G2 rheometer in axial mode using an 8-mm parallel plate geometry (R=4 mm) at a H=4 mm gap, resulting in an aspect ratio of H/R=1. A sample volume of 400 μl was loaded for each of the three replicated measurements. All experiments were performed at 25° C. Samples of the hydrogel compositions were loaded and tested immediately within seconds to minimize dehydration. […] (exponential) strain rates were applied at three different strain rates.
Compound,change of crossover frequency compared to the Sangelose only hydrogel,G′ values compared to hydrogels comprising only Sangelose (Tween comparison),storage modulus (G′) compared to Sangelose only hydrogels,tan (delta) compared to Sangelose only hydrogels
Span 20,did not change the crossover frequency,,,
polyoxyethylene (20) sorbitan monooleate [Tween 80],shift rightward,lower G′ values,lower than the storage modulus of the Sangelose only hydrogels,higher than the tan (delta) values of the Sangelose only hydrogels; also recorded: significantly higher tan (delta) values
polyoxyethylene (20) sorbitan monolaurate [Tween 20],shift rightward,lower G′ values,lower than the storage modulus of the Sangelose only hydrogels,higher than the tan (delta) values of the Sangelose only hydrogels; also recorded: significantly higher tan (delta) values
polyoxyethylene (20) sorbitan monopalmitate [Tween 40],,lower G′ values,,significantly higher tan (delta) values
"OCC1O[C@@H]2O[C@@H]3C(CO)O[C@H](O[C@@H]4C(CO)O[C@H](O[C@@H]5C(CO)O[C@H](O[C@@H]6C(CO)O[C@H](O[C@@H]7C(CO)O[C@H](O[C@H]1[C@H](O)[C@H]2O)[C@H](O)[C@H]7O)[C@H](O)[C@H]6O)[C@H](O)[C@H]5O)[C@H](O)[C@H]4O)[C@H](O)[C@H]3O (stereo partly drawn) [αCD, α-cyclodextrin]",shift rightward,,lower than the storage modulus of the Sangelose only hydrogels,higher than the tan (delta) values of the Sangelose only hydrogels
